Measurements reported in ChEMBL document CHEMBL1201862, “PubChem BioAssay data set” (2004).
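Compound exposure: 48 hours, 5 concentrations, 96-well plates. Abbreviation: GI50, concentration required for 50% inhibition of growth.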 Activity calls are given as the source filed them. Cut-off read from the data, not from the text of the source: active = GI50 up to about 1.1 µM and inactive = higher.

How the values were obtained:
Test in all cases: NCI-60 cell line screen, 48 h
[1] = test system: SK-MEL-5
[2] = test system: SNB-19
[3] = test system: U-251
[4] = test system: SR
[5] = test system: 786-0
[6] = test system: OVCAR-5
[7] = test system: SNB-75
[8] = test system: Hs-578T
[9] = test system: UACC-62
[10] = test system: SF-268
[11] = test system: M14
[12] = test system: ACHN
[13] = test system: A549
[14] = test system: BT-549
[15] = test system: NCI/ADR-RES
[16] = test system: UACC-257
[17] = test system: EKVX
[18] = test system: HL-60
[19] = test system: MOLT-4

Structure (SMILES)	GI50 [1]	GI50 [2]	GI50 [3]	GI50 [4]	GI50 [5]	GI50 [6]	GI50 [7]	GI50 [8]	GI50 [9]	GI50 [10]	GI50 [11]	GI50 [12]	GI50 [13]	GI50 [14]	GI50 [15]	GI50 [16]	GI50 [17]	GI50 [18]	GI50 [19]
COC(=O)[C@]12CSC[C@H]1C[C@H](c1ccc(N(C)C)cc1)N2	> 100 µM (inactive)	> 100 µM (inactive)	> 100 µM (inactive)	> 100 µM (inactive)	> 100 µM (inactive)	> 100 µM (inactive)	> 100 µM (inactive)	> 100 µM (inactive)	> 100 µM (inactive)	> 100 µM (inactive)	> 100 µM (inactive)	> 100 µM (inactive)	> 100 µM (inactive)	> 100 µM (inactive)	> 100 µM (inactive)	> 100 µM (inactive)	> 73.3 µM (inactive)		
CC(=O)N(C(=O)CC(=O)N1N=C(c2ccccc2)C(/N=N/c2ccccc2[N+](=O)[O-])C1=O)c1ccc(Cl)cc1 (stereo unspecified)	> 10 µM (inactive)	> 10 µM (inactive)	> 10 µM (inactive)		> 10 µM (inactive)	> 10 µM (inactive)	9.55 µM (inactive)	> 10 µM (inactive)	> 10 µM (inactive)	> 10 µM (inactive)		> 10 µM (inactive)	> 10 µM (inactive)	> 10 µM (inactive)	> 10 µM (inactive)	> 10 µM (inactive)	> 10 µM (inactive)	> 10 µM (inactive)	> 10 µM (inactive)
O=C(O)C(Cc1c[nH]c2ccccc12)N1C(=O)c2ccccc2C1=O (stereo unspecified)	> 100 µM (inactive)	> 100 µM (inactive)	> 100 µM (inactive)		> 100 µM (inactive)	> 100 µM (inactive)	> 100 µM (inactive)	> 100 µM (inactive)	> 100 µM (inactive)	> 100 µM (inactive)	> 100 µM (inactive)	> 100 µM (inactive)	> 100 µM (inactive)	> 100 µM (inactive)	> 100 µM (inactive)	> 100 µM (inactive)	> 100 µM (inactive)		
CCCCCCCCOP(=O)(O)OP(=O)(O)OCC1OC(n2ccc(N)nc2=O)C(O)C1O (stereo unspecified)	> 100 µM (inactive)	> 100 µM (inactive)	> 100 µM (inactive)		> 100 µM (inactive)	> 100 µM (inactive)	> 100 µM (inactive)	> 100 µM (inactive)	> 100 µM (inactive)	> 100 µM (inactive)	> 100 µM (inactive)	> 100 µM (inactive)	> 100 µM (inactive)	> 100 µM (inactive)	> 100 µM (inactive)	> 100 µM (inactive)	> 100 µM (inactive)	> 100 µM (inactive)	> 100 µM (inactive)
COC(=O)C1=C(OC(=O)/C(=C/c2ccccc2)c2ccc([N+](=O)[O-])cc2)C(C(=O)OC)[C@@]2(O)[C@@H](C(=O)OC)[C@H](C)C[C@@H]1[C@@H]2C(=O)OC (stereo partly specified)	> 100 µM (inactive)	> 100 µM (inactive)	> 100 µM (inactive)		> 100 µM (inactive)	> 100 µM (inactive)	72.9 µM (inactive)	> 100 µM (inactive)	> 100 µM (inactive)	> 100 µM (inactive)	> 100 µM (inactive)	> 100 µM (inactive)	76.2 µM (inactive)	31.1 µM (inactive)	> 100 µM (inactive)	> 100 µM (inactive)	> 100 µM (inactive)	78 µM (inactive)	3.53 µM (inactive)
Cn1c(S)nnc1-c1csc(-c2ccc(Cl)cc2)n1	> 100 µM (inactive)	17.5 µM (inactive)	> 10 µM (inactive)	> 100 µM (inactive)	17 µM (inactive)	34.4 µM (inactive)	18.7 µM (inactive)	29.7 µM (inactive)	23.9 µM (inactive)	29.3 µM (inactive)	33.1 µM (inactive)	18.7 µM (inactive)	32.6 µM (inactive)	22.1 µM (inactive)	25.2 µM (inactive)	> 100 µM (inactive)	30.7 µM (inactive)		55.8 µM (inactive)
CC(=O)C1C(=O)C(=O)N(c2ccc([N+](=O)[O-])cc2Cl)C1=O (stereo unspecified)	> 100 µM (inactive)	> 100 µM (inactive)	> 100 µM (inactive)		> 100 µM (inactive)	> 100 µM (inactive)	> 100 µM (inactive)	> 100 µM (inactive)	> 100 µM (inactive)	> 100 µM (inactive)	> 100 µM (inactive)	> 100 µM (inactive)	> 100 µM (inactive)	> 100 µM (inactive)	> 100 µM (inactive)	> 100 µM (inactive)	> 100 µM (inactive)	93.1 µM (inactive)	45.6 µM (inactive)
Fc1cccc(C2SCc3nc4cc5ccccc5cc4n32)c1 (stereo unspecified)		> 100 µM (inactive)	> 100 µM (inactive)	> 100 µM (inactive)	69.3 µM (inactive)	> 100 µM (inactive)	93.1 µM (inactive)	> 100 µM (inactive)	> 100 µM (inactive)	> 100 µM (inactive)	> 100 µM (inactive)	> 100 µM (inactive)	> 100 µM (inactive)	> 100 µM (inactive)	> 100 µM (inactive)	> 100 µM (inactive)	> 100 µM (inactive)		> 100 µM (inactive)
Cc1ccc(/C=c2\c(=O)[nH]c3nc4ccccc4c(=O)n23)cc1		34.9 µM (inactive)	19.9 µM (inactive)		39.4 µM (inactive)	> 100 µM (inactive)	28.6 µM (inactive)	31 µM (inactive)	33.5 µM (inactive)	45.5 µM (inactive)	37.5 µM (inactive)	> 100 µM (inactive)	94.4 µM (inactive)	21.6 µM (inactive)	39.4 µM (inactive)	70 µM (inactive)		29.2 µM (inactive)	38.8 µM (inactive)
COc1cc2c(cc1OC)-c1cc3cc(OC)c(OC)cc3c(C)[n+]1CC2.O=C([O-])CS(=O)(=O)O	37.8 µM (inactive)	41.7 µM (inactive)	15 µM (inactive)		> 100 µM (inactive)	> 100 µM (inactive)		> 100 µM (inactive)	23.2 µM (inactive)	0.975 µM (active)	> 100 µM (inactive)	> 100 µM (inactive)	> 100 µM (inactive)	41.7 µM (inactive)	> 100 µM (inactive)	15.8 µM (inactive)	> 100 µM (inactive)	> 100 µM (inactive)	9.51 µM (inactive)
COc1ccc(OC)c(/C=C2/C(=O)N/C(=N\C(C)=O)N2C)c1	> 100 µM (inactive)	> 100 µM (inactive)	> 100 µM (inactive)		> 100 µM (inactive)	> 100 µM (inactive)	> 100 µM (inactive)	> 100 µM (inactive)	> 100 µM (inactive)	> 100 µM (inactive)	> 100 µM (inactive)	> 100 µM (inactive)	> 100 µM (inactive)	> 100 µM (inactive)	> 100 µM (inactive)	> 100 µM (inactive)	> 100 µM (inactive)	95.1 µM (inactive)	> 100 µM (inactive)
Oc1cc(Cc2ccccc2)c(Cc2ccccc2)cc1O	> 10 µM (inactive)	> 10 µM (inactive)	> 10 µM (inactive)		> 10 µM (inactive)	> 10 µM (inactive)	4.62 µM (inactive)	> 10 µM (inactive)	> 10 µM (inactive)	> 10 µM (inactive)	> 10 µM (inactive)	> 10 µM (inactive)	> 10 µM (inactive)	> 10 µM (inactive)	> 10 µM (inactive)	> 10 µM (inactive)	> 10 µM (inactive)	> 10 µM (inactive)	> 10 µM (inactive)
CCCCn1cc(C(=O)O)c(=O)c2c3sccc3ccc21	> 100 µM (inactive)	> 100 µM (inactive)	6.73 µM (inactive)		> 100 µM (inactive)	> 100 µM (inactive)	25.8 µM (inactive)	> 100 µM (inactive)	> 100 µM (inactive)	> 100 µM (inactive)	> 100 µM (inactive)	> 100 µM (inactive)	> 100 µM (inactive)	> 100 µM (inactive)	19.9 µM (inactive)	> 100 µM (inactive)	> 100 µM (inactive)	34.8 µM (inactive)	> 100 µM (inactive)
CC(C)C1=CC(=O)C(C)(C2C(O)CC3(C)C4CC=C5C(CCC(OC6OC(CO)C(O)C(O)C6OC6OC(C)C(O)C(O)C6O)C5(C)C)C4(C)C(=O)CC23C)O1 (stereo unspecified)	> 100 µM (inactive)	> 100 µM (inactive)	> 100 µM (inactive)		> 100 µM (inactive)	> 100 µM (inactive)	> 100 µM (inactive)	> 100 µM (inactive)	> 100 µM (inactive)	> 100 µM (inactive)	> 100 µM (inactive)	> 100 µM (inactive)	> 100 µM (inactive)	> 100 µM (inactive)	> 100 µM (inactive)	> 100 µM (inactive)	> 100 µM (inactive)		> 100 µM (inactive)
O=C1c2c(O)cccc2C(C2OC(CO)C(O)C(O)C2O)c2cc(CO)cc(O)c21 (stereo unspecified)	> 100 µM (inactive)	> 100 µM (inactive)	> 100 µM (inactive)		> 100 µM (inactive)	> 100 µM (inactive)	> 100 µM (inactive)	> 100 µM (inactive)	> 100 µM (inactive)	> 100 µM (inactive)	> 100 µM (inactive)	> 100 µM (inactive)	> 100 µM (inactive)	> 100 µM (inactive)	> 100 µM (inactive)	> 100 µM (inactive)	> 100 µM (inactive)	> 100 µM (inactive)	> 100 µM (inactive)
